Experiments:
Experiment in all cases: Test C greenhouse herbicide test, pre- and postemergence
Assay type in all cases: in vivo
[1] = tested on: crabgrass, large (large crabgrass, Digitaria sanguinalis)
Procedure, shortened: (§1)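 Visual 0–100 injury score (100 = complete control) taken against untreated controls after 13–15 d in greenhouse. Test chemicals, formulated in solvent plus surfactant, applied preemergence to seeds in loam–sand soil or postemergence to 1- to 4-leaf plants (2–18 cm).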

[2] = tested on: lambsquarters (Chenopodium album)
Procedure, shortened: as §1

[3] = tested on: nutsedge, yellow (yellow nutsedge, Cyperus esculentus); details: Preemergence; for Plant response rating, Nutsedge, Yellow: scale 0 to 100, 0 is no effect, 100 is complete control
Procedure, shortened: as §1

[4] = tested on: morningglory (Ipomoea coccinea)
Procedure, shortened: as §1

[5] = tested on: velvetleaf (Abutilon theophrasti)
Procedure, shortened: as §1

[6] = tested on: blackgrass (Alopecurus myosuroides)
Procedure, shortened: as §1

[7] = tested on: foxtail, giant (giant foxtail, Setaria faberii)
Procedure, shortened: as §1

[8] = tested on: galium (catchweed bedstraw, Galium aparine)
Procedure, shortened: as §1

[9] = tested on: barnyardgrass (Echinochloa crus-galli)
Procedure, shortened: as §1

[10] = tested on: ryegrass, Italian (Italian ryegrass, Lolium multiflorum)
Procedure, shortened: as §1

[11] = tested on: pigweed (Amaranthus retroflexus)
Procedure, shortened: as §1

[12] = tested on: johnsongrass (Sorghum halepense)
Procedure, shortened: as §1

[13] = tested on: oilseed rape (Brassica napus)
Procedure, shortened: as §1

corn (Zea mays) = tested on: corn (Zea mays)
Procedure, shortened: as §1

[14] = tested on: ragweed (common ragweed, Ambrosia elatior)
Procedure, shortened: as §1

[15] = tested on: waterhemp (common waterhemp, Amaranthus rudis)
Procedure, shortened: as §1

[16] = Postemergence, 31 g ai/ha, 0 to 100 scale (0 no effect, 100 complete control)
[17] = Postemergence, 125 g ai/ha, scale 0 to 100, 0 is no effect, 100 is complete control
[18] = Postemergence, 250 g ai/ha, scale 0 to 100, 0 no effect, 100 complete control, 13 to 15 d
[19] = Preemergence, 31 g ai/ha, scale 0 to 100, 0 is no effect, 100 is complete control
[20] = Preemergence, 62 g ai/ha, scale 0 to 100, 0 is no effect, 100 is complete control
[21] = Preemergence, 125 g ai/ha, scale 0 to 100, 0 is no effect, 100 is complete control
[22] = Preemergence, 250 g ai/ha, scale 0 to 100 (0 no effect, 100 complete control)
[23] = postemergence, 62 g ai/ha, scale 0 to 100, 0 no effect, 100 complete control

Cc1ccc2sc(C)c(-c3c(O)c(C)nn(C)c3=O)c2c1 [Compound 1, 4-(2,5-dimethylbenzo[b]thien-3-yl)-5-hydroxy-2,6-dimethyl-3(2H)-pyridazinone]
Crabgrass, Large plant response rating [1, 16]: 20 | Plant response rating, Crabgrass, Large [1, 17]: 25 | Plant response rating, Crabgrass, Large [1, 18]: 35 | Plant response rating, Crabgrass, Large [1, 19]: 35 | Plant response rating, Crabgrass, Large [1, 20]: 40 | Plant response rating, Crabgrass, Large [1, 21]: 80 | Crabgrass, Large plant response rating [1, 22]: 100 | Crabgrass, Large plant response rating [1, 23]: 10 | Lambsquarters plant response rating [2, 16]: 85 | Plant response rating, Lambsquarters [2, 17]: 100 | Plant response rating, Lambsquarters [2, 18]: 100 | Plant response rating, Lambsquarters [2, 19]: 80 | Plant response rating, Lambsquarters [2, 20]: 95 | Plant response rating, Lambsquarters [2, 21]: 100 | Lambsquarters plant response rating [2, 22]: 100 | Lambsquarters plant response rating [2, 23]: 100 | Plant response rating, Nutsedge, Yellow ([3]; 31 g ai/ha): 40 | Plant response rating, Nutsedge, Yellow ([3]; 62 g ai/ha): 35 | Plant response rating, Nutsedge, Yellow ([3]; 125 g ai/ha): 70 | Nutsedge, Yellow plant response rating ([3]; 250 g ai/ha, scale 0 to 100 (0 no effect, 100 complete control)): 75 | Morningglory plant response rating [4, 16]: 100 | Plant response rating, Morningglory [4, 17]: 100 | Plant response rating, Morningglory [4, 18]: 100 | Plant response rating, Morningglory [4, 19]: 95 | Plant response rating, Morningglory [4, 20]: 100 | Plant response rating, Morningglory [4, 21]: 100 | Morningglory plant response rating [4, 22]: 100 | Morningglory plant response rating [4, 23]: 100 | Velvetleaf plant response rating [5, 16]: 80 | Plant response rating, Velvetleaf [5, 17]: 95 | Plant response rating, Velvetleaf [5, 18]: 100 | Plant response rating, Velvetleaf [5, 20]: 90 | Plant response rating, Velvetleaf [5, 21]: 100 | Velvetleaf plant response rating [5, 22]: 98 | Velvetleaf plant response rating [5, 23]: 85 | Blackgrass plant response rating [6, 16]: 20 | Plant response rating, Blackgrass [6, 17]: 60 | Plant response rating, Blackgrass [6, 18]: 75 | Plant response rating, Blackgrass [6, 19]: 60 | Plant response rating, Blackgrass [6, 20]: 90 | Plant response rating, Blackgrass [6, 21]: 90 | Blackgrass plant response rating [6, 22]: 90 | Blackgrass plant response rating [6, 23]: 50 | Foxtail, Giant plant response rating [7, 16]: 35 | Plant response rating, Foxtail, Giant [7, 17]: 60 | Plant response rating, Foxtail, Giant [7, 18]: 90 | Plant response rating, Foxtail, Giant [7, 19]: 55 | Plant response rating, Foxtail, Giant [7, 20]: 75 | Plant response rating, Foxtail, Giant [7, 21]: 100 | Foxtail, Giant plant response rating [7, 22]: 100 | Foxtail, Giant plant response rating [7, 23]: 15 | Galium plant response rating [8, 16]: 90 | Plant response rating, Galium [8, 17]: 95 | Plant response rating, Galium [8, 18]: 95 | Plant response rating, Galium [8, 19]: 90 | Plant response rating, Galium [8, 20]: 100 | Plant response rating, Galium [8, 21]: 95 | Galium plant response rating [8, 22]: 100 | Galium plant response rating [8, 23]: 95 | Barnyardgrass plant response rating [9, 16]: 0 | Plant response rating, Barnyardgrass [9, 17]: 5 | Plant response rating, Barnyardgrass [9, 18]: 5 | Plant response rating, Barnyardgrass [9, 19]: 5 | Plant response rating, Barnyardgrass [9, 20]: 5 | Plant response rating, Barnyardgrass [9, 21]: 25 | Barnyardgrass plant response rating [9, 22]: 90 | Barnyardgrass plant response rating [9, 23]: 5 | Ryegrass, Italian plant response rating [10, 16]: 80 | Plant response rating, Ryegrass, Italian [10, 17]: 95 | Plant response rating, Ryegrass, Italian [10, 18]: 98 | Plant response rating, Ryegrass, Italian [10, 19]: 95 | Plant response rating, Ryegrass, Italian [10, 20]: 100 | Plant response rating, Ryegrass, Italian [10, 21]: 100 | Ryegrass, Italian plant response rating [10, 22]: 100 | Ryegrass, Italian plant response rating [10, 23]: 90 | Pigweed plant response rating [11, 16]: 95 | Plant response rating, Pigweed [11, 17]: 98 | Plant response rating, Pigweed [11, 18]: 100 | Plant response rating, Pigweed [11, 19]: 100 | Plant response rating, Pigweed [11, 20]: 100 | Plant response rating, Pigweed [11, 21]: 100 | Pigweed plant response rating [11, 22]: 100 | Pigweed plant response rating [11, 23]: 95 | Johnsongrass plant response rating [12, 16]: 0 | Plant response rating, Johnsongrass [12, 17]: 0 | Plant response rating, Johnsongrass [12, 18]: 15 | Plant response rating, Johnsongrass [12, 19]: 0 | Plant response rating, Johnsongrass [12, 20]: 5 | Plant response rating, Johnsongrass [12, 21]: 5 | Johnsongrass plant response rating [12, 22]: 5 | Johnsongrass plant response rating [12, 23]: 0 | Oilseed Rape plant response rating [13, 16]: 0 | Plant response rating, Oilseed Rape [13, 17]: 5 | Plant response rating, Oilseed Rape [13, 18]: 40 | Plant response rating, Oilseed Rape [13, 19]: 0 | Plant response rating, Oilseed Rape [13, 20]: 5 | Oilseed Rape plant response rating [13, 22]: 20 | Oilseed Rape plant response rating [13, 23]: 0 | Corn plant response rating (corn (Zea mays); [16]): 0 | Plant response rating, Corn (corn (Zea mays); [17]): 5 | Plant response rating, Corn (corn (Zea mays); [18]): 40 | Plant response rating, Corn (corn (Zea mays); [19]): 0 | Plant response rating, Corn (corn (Zea mays); [20]): 0 | Plant response rating, Corn (corn (Zea mays); [21]): 0 | Corn plant response rating (corn (Zea mays); [22]): 5 | Corn plant response rating (corn (Zea mays); [23]): 25 | Ragweed plant response rating [14, 16]: 90 | Plant response rating, Ragweed [14, 17]: 95 | Plant response rating, Ragweed [14, 18]: 95 | Plant response rating, Ragweed [14, 19]: 90 | Plant response rating, Ragweed [14, 20]: 80 | Plant response rating, Ragweed [14, 21]: 100 | Ragweed plant response rating [14, 22]: 98 | Ragweed plant response rating [14, 23]: 95 | Waterhemp plant response rating [15, 16]: 95 | Plant response rating, Waterhemp [15, 17]: 100 | Plant response rating, Waterhemp [15, 18]: 100 | Plant response rating, Waterhemp [15, 20]: 100 | Plant response rating, Waterhemp [15, 21]: 100 | Waterhemp plant response rating [15, 22]: 100 | Waterhemp plant response rating [15, 23]: 95
